According to ChEMBL document CHEMBL5523720, “Identification of novel GSPT1 degraders by virtual screening and bioassay” (Eur J Med Chem, 2024):
One block for each compound: values may come before it. Activity calls are given as the source filed them. The calls are words filed in the database; no cut-off is given here.

How the values were obtained:
[1] = tested on: OCI-AML2; test: Antiproliferative activity against human OCI-AML2 cells incubated for 48 hrs by MTS assay; type: functional, cell-based; settings: OCI-AML2, 48 h
[2] = tested on: U-266; test: Antiproliferative activity against human U-266 cells incubated for 48 hrs by MTS assay; type: functional, cell-based; settings: U-266, 48 h
[3] = tested on: U-937; test: Antiproliferative activity against human U-937 cells incubated for 48 hrs by MTS assay; type: functional, cell-based; settings: U-937, 48 h
[4] = tested on: K562; test: Antiproliferative activity against human K562 cells incubated for 48 hrs by MTS assay; type: functional, cell-based; settings: K562, 48 h
[5] = molecular target: Eukaryotic peptide chain release factor GTP-binding subunit ERF3A (Homo sapiens) (UniProt P15170); test: Induction of GSPT1 degradation in human U-937 cells with CHX pretreatment by Western blotting analysis; type: cell-based; settings: dose 20-40 µM
Chain of Eukaryotic peptide chain release factor GTP-binding subunit ERF3A (Homo sapiens) (P15170 whole entry): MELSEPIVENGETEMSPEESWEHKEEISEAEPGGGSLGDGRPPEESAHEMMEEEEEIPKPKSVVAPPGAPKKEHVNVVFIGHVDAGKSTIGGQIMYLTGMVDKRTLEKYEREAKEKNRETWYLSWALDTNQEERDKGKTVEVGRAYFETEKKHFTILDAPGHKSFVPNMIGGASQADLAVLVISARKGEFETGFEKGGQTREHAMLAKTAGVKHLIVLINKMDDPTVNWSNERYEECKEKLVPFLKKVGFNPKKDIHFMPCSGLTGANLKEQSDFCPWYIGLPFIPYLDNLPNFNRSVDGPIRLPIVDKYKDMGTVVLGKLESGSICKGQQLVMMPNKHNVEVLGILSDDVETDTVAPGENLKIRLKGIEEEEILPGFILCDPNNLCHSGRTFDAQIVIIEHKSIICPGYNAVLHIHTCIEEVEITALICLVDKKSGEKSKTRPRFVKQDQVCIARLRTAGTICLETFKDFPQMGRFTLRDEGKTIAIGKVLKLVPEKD

[6] = tested on: OCI-AML2; test: Upregulation of PARP cleavage in human OCI-AML2 cells at 5 to 20 uM incubated for 24 hrs by Western blotting assay; type: functional, cell-based; settings: dose 5-20 µM
[7] = tested on: OCI-AML2; test: Antiproliferative activity against GSPT1 knockout human OCI-AML2 cells incubated for 48 hrs by MTS assay; type: functional, cell-based
[8] = molecular target: Eukaryotic peptide chain release factor GTP-binding subunit ERF3A (Homo sapiens) (UniProt P15170); test: Induction of GSPT1 degradation in human HEK293FT cells at 20 to 40 uM pretreated with MLN4924 for 1 hr followed by compound addition and measured after 8 hrs by Western blotting analysis; type: cell-based; settings: dose 20-40 µM
[9] = molecular target: Eukaryotic peptide chain release factor GTP-binding subunit ERF3A (Homo sapiens) (UniProt P15170); test: Induction of GSPT1 degradation in human OCI-AML2 cells at 20 to 40 uM pretreated with MLN4924 followed by compound addition and measured after 8 hrs by Western blotting analysis; type: cell-based; settings: dose 20-40 µM
[10] = tested on: OCI-AML2; test: Upregulation of p21 level in human OCI-AML2 cells at 5 to 20 uM incubated for 24 hrs by Western blotting assay; type: functional, cell-based; settings: dose 5-20 µM
[11] = tested on: OCI-AML2; test: Downregulation of IKZF1 in human OCI-AML2 cells at high concentration incubated for 8 hrs by Western blotting analysis; type: functional, cell-based
[12] = tested on: U-937; test: Upregulation of caspase 9 level in human U-937 cells at 5 to 20 uM incubated for 24 hrs by Western blotting assay; type: functional, cell-based; settings: dose 5-20 µM
[13] = tested on: OCI-AML2; test: Downregulation of GSPT1 in human OCI-AML2 cells at high concentration incubated for 8 hrs by Western blotting analysis; type: functional, cell-based
[14] = tested on: U-937; test: Induction of cell cycle arrest in human U-937 cells assessed as decrease in M phase cells at 5 to 20 uM incubated for 24 hrs by propidium iodide staining based flow cytometry analysis; type: functional; settings: dose 5-20 µM
[15] = tested on: U-937; test: Upregulation of PARP cleavage in human U-937 cells at 5 to 20 uM incubated for 24 hrs by Western blotting assay; type: functional, cell-based; settings: dose 5-20 µM
[16] = tested on: U-937; test: Upregulation of p21 level in human U-937 cells at 5 to 20 uM incubated for 24 hrs by Western blotting assay; type: functional, cell-based; settings: dose 5-20 µM
[17] = molecular target: T1, Protein cereblon/Eukaryotic peptide chain release factor GTP-binding subunit ERF3A (Homo sapiens) (UniProt Q96SW2+P15170); test: Induction of CRBN to GSPT1 protein-protein interaction in human U-937 cells at 20 uM pretreated with MG132 for 1 hr followed by compound addition and measured after 8 hrs by immunoprecipitation assay; type: cell-based; settings: filed as activator
T1 sequence (P15170 whole entry, looked up): as the sequence (P15170 whole entry) above
T1 sequence (Q96SW2 whole entry, looked up): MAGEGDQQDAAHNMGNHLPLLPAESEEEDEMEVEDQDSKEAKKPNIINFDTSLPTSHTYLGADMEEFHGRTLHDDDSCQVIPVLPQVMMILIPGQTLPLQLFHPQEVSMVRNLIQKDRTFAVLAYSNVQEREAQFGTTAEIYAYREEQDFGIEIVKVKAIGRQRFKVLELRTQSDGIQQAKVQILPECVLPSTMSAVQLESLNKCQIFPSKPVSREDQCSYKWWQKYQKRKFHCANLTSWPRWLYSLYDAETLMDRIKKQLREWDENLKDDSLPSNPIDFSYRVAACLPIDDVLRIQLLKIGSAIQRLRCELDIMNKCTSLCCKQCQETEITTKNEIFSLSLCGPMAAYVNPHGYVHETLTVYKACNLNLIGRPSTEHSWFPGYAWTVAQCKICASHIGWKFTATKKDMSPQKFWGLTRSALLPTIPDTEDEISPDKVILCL

[18] = tested on: U-937; test: Downregulation of CK1alpha in human U-937 cells at high concentration incubated for 8 hrs by Western blotting analysis; type: functional, cell-based
[19] = molecular target: T1, Protein cereblon/Eukaryotic peptide chain release factor GTP-binding subunit ERF3A (Homo sapiens); test: Binding affinity to CRBN/GSPT1 in human U-937 cells assessed as increase in protein stabilization incubated for 6 hrs by CETSA; type: cell-based; settings: filed as activator
[20] = tested on: OCI-AML2; test: Induction of cell cycle arrest in human OCI-AML2 cells assessed as increase in G1 phase cells at 5 to 20 uM incubated for 24 hrs by propidium iodide staining based flow cytometry analysis; type: functional; settings: dose 5-20 µM
[21] = molecular target: Protein cereblon (Homo sapiens) (UniProt Q96SW2); test: Binding affinity to recombinant CRBN (unknown origin) by SPR assay
Chain of Protein cereblon (Homo sapiens) (Q96SW2 whole entry): as the sequence (Q96SW2 whole entry, looked up) above

[22] = tested on: U-937; test: Downregulation of GSPT1 in human U-937 cells at high concentration incubated for 8 hrs by Western blotting analysis; type: functional, cell-based
[23] = tested on: OCI-AML2; test: Downregulation of c-Myc level in human OCI-AML2 cells at 5 to 20 uM incubated for 24 hrs by Western blotting assay; type: functional, cell-based; settings: dose 5-20 µM
[24] = tested on: OCI-AML2; test: Downregulation of CK1alpha in human OCI-AML2 cells at high concentration incubated for 8 hrs by Western blotting analysis; type: functional, cell-based
[25] = tested on: OCI-AML2; test: Upregulation of caspase 9 level in human OCI-AML2 cells at 5 to 20 uM incubated for 24 hrs by Western blotting assay; type: functional, cell-based; settings: dose 5-20 µM
[26] = tested on: U-937; test: Antiproliferative activity against CRBN knockdown human U-937 cells incubated for 48 hrs by MTS assay; type: functional, cell-based
[27] = molecular target: Eukaryotic peptide chain release factor GTP-binding subunit ERF3A (Homo sapiens) (UniProt P15170); test: Induction of GSPT1 degradation in human U-937 cells at 20 to 40 uM pretreated with MG132 for 1 hr followed by compound addition and measured after 8 hrs by Western blotting analysis; type: cell-based; settings: dose 20-40 µM
[28] = tested on: OCI-AML2; test: Induction of cell cycle arrest in human OCI-AML2 cells assessed as decrease in M phase cells at 5 to 20 uM incubated for 24 hrs by propidium iodide staining based flow cytometry analysis; type: functional; settings: dose 5-20 µM
[29] = tested on: U-937; test: Induction of cell cycle arrest in human U-937 cells assessed as increase in G1 phase cells at 5 to 20 uM incubated for 24 hrs by propidium iodide staining based flow cytometry analysis; type: functional; settings: dose 5-20 µM
[30] = tested on: U-937; test: Downregulation of c-Myc level in human U-937 cells at 5 to 20 uM incubated for 24 hrs by Western blotting assay; type: functional, cell-based; settings: dose 5-20 µM
[31] = tested on: U-937; test: Downregulation of IKZF1 in human U-937 cells at high concentration incubated for 8 hrs by Western blotting analysis; type: functional, cell-based
[32] = tested on: OCI-AML2; test: Induction of apoptosis in human OCI-AML2 cells assessed as increase in number of apoptotic cells at 5 to 20 uM incubated for 48 hrs by Annexin V-FITC/PI staining based flow cytometry analysis; type: functional, cell-based; settings: dose 5-20 µM
[33] = molecular target: Eukaryotic peptide chain release factor GTP-binding subunit ERF3A (Homo sapiens) (UniProt P15170); test: Induction of GSPT1 degradation in human U-937 cells at 20 to 40 uM pretreated with MLN4924 followed by compound addition and measured after 8 hrs by Western blotting analysis; type: cell-based; settings: dose 20-40 µM
[34] = tested on: U-937; test: Induction of apoptosis in human U-937 cells assessed as increase in number of apoptotic cells at 5 to 20 uM incubated for 48 hrs by Annexin V-FITC/PI staining based flow cytometry analysis; type: functional, cell-based; settings: dose 5-20 µM
[35] = molecular target: Eukaryotic peptide chain release factor GTP-binding subunit ERF3A (Homo sapiens) (UniProt P15170); test: Induction of GSPT1 degradation in human OCI-AML2 cells at 1 uM incubated for 8 hrs by Western blotting analysis; type: cell-based
[36] = molecular target: Eukaryotic peptide chain release factor GTP-binding subunit ERF3A (Homo sapiens) (UniProt P15170); test: Induction of GSPT1 degradation in human U-937 cells at 1 uM incubated for 8 hrs by Western blotting analysis; type: cell-based
[37] = molecular target: T1, Protein cereblon/Eukaryotic peptide chain release factor GTP-binding subunit ERF3A (Homo sapiens); test: Induction of CRBN to GSPT1 protein-protein interaction in human U-937 cells at 1 uM pretreated with MG132 for 1 hr followed by compound addition and measured after 8 hrs by immunoprecipitation assay; type: cell-based; settings: filed as activator

Structure (SMILES): Cc1nc2c(C)cccc2cc1C(=O)N/N=C/c1ccccc1O
Activity [5]: Dose-Dependent Effect
Activity [6]: Active
Activity [7]: inactive
Activity [8]: inactive
Activity [9]: inactive
IC50 [1]: 2.64 µM
Activity [10]: Active
Activity [11]: Active
Activity [12]: Active
Activity [13]: Active
Activity [14]: Active
Activity [15]: Active
Activity [16]: Active
Activity [17]: Active
Activity [18]: Active
Activity [19]: Active
Activity [20]: Active
Activity [21]: Active
IC50 [2]: 3.8 µM
Activity [22]: Active
Activity [23]: Active
Activity [24]: Active
Activity [25]: Active
Activity [26]: inactive
Activity [27]: inactive
Activity [28]: Active
Activity [29]: Active
Activity [30]: Active
Activity [31]: Active
IC50 [3]: 4.49 µM
Activity [32]: Active
IC50 [4]: 16.7 µM
Activity [33]: inactive
Activity [34]: Active

Structure (SMILES): Cc1nc2c(C)cccc2cc1C(=O)N/N=C/c1ccccc1Cl
IC50 [1]: 2.66 µM
IC50 [2]: 3.93 µM
IC50 [3]: 6.89 µM
IC50 [4]: > 40 µM

Structure (SMILES): Cc1nc2c(C)cccc2cc1C(=O)N/N=C/c1cccnc1
IC50 [1]: 15.6 µM
IC50 [2]: 26.6 µM
IC50 [3]: > 40 µM
IC50 [4]: > 40 µM

Structure (SMILES): O=C1CCC(N2Cc3cc(CNC(=O)C(F)(F)c4ccc(Cl)cc4)ccc3C2=O)C(=O)N1 (centres undefined)
Activity [35]: Active
IC50 [1]: 0.01 µM
Activity [36]: Active
IC50 [2]: 0.04 µM
Activity [37]: Active
IC50 [3]: < 0.032 µM
IC50 [4]: > 40 µM

Structure (SMILES): CC(C)=NNC(=O)c1cc2cccc(C)c2nc1C
IC50 [1]: > 40 µM
IC50 [2]: > 40 µM
IC50 [3]: > 40 µM
IC50 [4]: > 40 µM

Now from value to compound, other results behind:

IC50 [1]: > 40 µM
IC50 [3]: > 40 µM
IC50 [4]: > 40 µM
Structure (SMILES): Cc1nc2ccccc2cc1C(=O)N/N=C/c1cccc(Cl)c1
IC50 [2]: > 40 µM

IC50 [1]: 2.49 µM
IC50 [3]: 4.31 µM
IC50 [4]: 9.92 µM
Structure (SMILES): Cc1nc2c(C)cccc2cc1C(=O)N/N=C/c1cccc(Cl)c1
IC50 [2]: 3.1 µM

IC50 [1]: > 40 µM
IC50 [3]: > 40 µM
IC50 [4]: > 40 µM
Structure (SMILES): Cc1ccc2nc(C)c(C(=O)N/N=C/c3cccc(O)c3)cc2c1
IC50 [2]: > 40 µM

IC50 [1]: > 40 µM
IC50 [3]: > 40 µM
IC50 [4]: > 40 µM
Structure (SMILES): Cc1ccc2nc(C)c(C(=O)N/N=C/c3cccc(Cl)c3)cc2c1
IC50 [2]: > 40 µM
